# From US9409866B2, “Pyridine-2-amides useful as CB2 agonists” (Hoffmann-La Roche Inc., priority 2012, dated 2016)
# Where two headings read alike, the source gives them in different places.
# Tests used:
# human CB2 receptors = human CB2 receptors (Homo sapiens (Human), UniProt P34972); experiment: functional cAMP assay, CHO cells expressing human CB2; format: cell-based
# Protocol: (§1) CHO cells expressing human CB1 or CB2 receptors are seeded 17-24 hours prior to the experiment 50.000 cells per well in a black 96 well plate with flat clear bottom (Corning Costar #3904) in DMEM (Invitrogen No. 31331), 1×HT supplement, with 10% fetal calf serum and incubated at 5% CO2 and 37° C. in a humidified incubator. The growth medium was exchanged with Krebs Ringer Bicarbonate buffer with 1 mM IBMX and incubated at 30° C. for 30 min. Compounds were added to a final assay volume of 100 μl and incubated for 30 min at 30° C. Using the cAMP-Nano-TRF detection kit the assay (Roche Diagnostics) was stopped by the addition of 50 μl lysis reagent (Tris, NaCl, 1.5% Triton X100, 2.5% NP40, 10% NaN3) and 50 μl detection solutions (20 μM mAb Alexa700-cAMP 1:1, and 48 μM Ruthenium-2-AHA-cAMP) and shaken for 2 h at room temperature. The time-resolved energy transfer is measured by a TRF reader (Evotec Technologies GmbH), equipped with a ND:YAG laser as excitation source. The plate is measured twice with the excitation at 355 nm and at the emission with a delay of 100 ns and a gate of 100 ns, total exposure time 10 s at 730 (bandwidth 30 nm) or 645 nm (bandwidth 75 nm), respectively. The FRET signal is calculated as follows: FRET=T730-Alexa730-P(T645-B645) with P=Ru730-B730/Ru645-B645, where T730 is the test well measured at 730 nM, T645 is the test well measured at 645 nm, B730 and B645 are the buffer controls at 730 nm and 645 nm, respectively. cAMP content is determined from the function of a standard curve spanning from 10 μM to 0.13 nM cAMP.
# (§2) EC50 values were determined using Activity Base analysis (ID Business Solution, Limited). The EC50 values for a wide range of cannabinoid agonists generated from this assay were in agreement with the values published in the scientific literature.
# human CB1 receptors = human CB1 receptors (Homo sapiens (Human), UniProt P21554); experiment: functional cAMP assay, CHO cells expressing human CB1; format: cell-based
# human CB1 receptors, sequence (P21554 whole entry): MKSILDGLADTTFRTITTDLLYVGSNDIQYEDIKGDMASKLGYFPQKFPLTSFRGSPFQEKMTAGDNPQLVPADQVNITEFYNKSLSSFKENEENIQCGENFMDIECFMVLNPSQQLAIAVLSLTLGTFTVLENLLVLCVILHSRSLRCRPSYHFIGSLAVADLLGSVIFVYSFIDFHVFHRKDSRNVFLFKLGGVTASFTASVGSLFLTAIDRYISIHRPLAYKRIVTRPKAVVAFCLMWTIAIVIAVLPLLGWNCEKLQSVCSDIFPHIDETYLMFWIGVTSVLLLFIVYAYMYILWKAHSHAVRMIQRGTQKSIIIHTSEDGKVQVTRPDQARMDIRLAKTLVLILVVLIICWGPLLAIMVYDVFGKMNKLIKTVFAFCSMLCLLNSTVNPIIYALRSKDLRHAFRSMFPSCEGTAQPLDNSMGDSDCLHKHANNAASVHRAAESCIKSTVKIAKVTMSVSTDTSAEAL
# Protocol: as §1, §2
# [1] = functional cAMP assay, CHO cells expressing human CB1; read-out: Human CB1 EC50
# [2] = Human CB1 EC50 (uM), functional cAMP assay, CHO cells expressing human CB1
# [3] = read-out: Human CB1 EC50; functional cAMP assay, CHO cells expressing human CB1
# human CB2 receptors, sequence (P34972 whole entry): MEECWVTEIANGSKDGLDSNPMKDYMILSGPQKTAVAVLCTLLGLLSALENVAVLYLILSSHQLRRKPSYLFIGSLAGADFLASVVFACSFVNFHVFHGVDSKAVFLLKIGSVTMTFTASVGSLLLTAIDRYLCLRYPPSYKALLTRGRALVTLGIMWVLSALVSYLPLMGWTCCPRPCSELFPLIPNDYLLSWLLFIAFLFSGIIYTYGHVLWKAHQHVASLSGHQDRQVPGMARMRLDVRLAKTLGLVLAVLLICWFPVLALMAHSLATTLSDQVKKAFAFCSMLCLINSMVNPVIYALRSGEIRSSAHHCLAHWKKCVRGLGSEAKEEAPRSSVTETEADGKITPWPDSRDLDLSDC
SMILES,EC50 (human CB2 receptors; read-out: Human CB2 EC50),EC50 (human CB1 receptors; [1]),EC50 (human CB2 receptors; Human CB2 EC50 (uM)),EC50 (human CB1 receptors; [2]),EC50 (human CB1 receptors; [3])
"C[C@H](Oc1cc(C(=O)NC(c2noc(N)n2)C(C)(C)C)ncc1C1CC1)C(F)(F)F (stereo partly drawn) [Example 213, N-[1-(5-amino-1,2,4-oxadiazol-3-yl)-2,2-dimethylpropyl]-5-cyclopropyl-4-[(2S)-1,1,1-trifluoropropan-2-yl]oxypyridine-2-carboxamide]",0.0111 µM,> 10 µM,,,
"Cc1nc(C(C)(NC(=O)c2cc(OCC(F)(F)F)c(C3(F)CCC3)cn2)C2CC2)no1 (single isomer, unassigned) [Example 306, N-(1-cyclopropyl-1-(5-methyl-1,2,4-oxadiazol-3-yl)ethyl)-5-(1-fluorocyclobutyl)-4-(2,2,2-trifluoroethoxy)picolinamide]",,,0.0118 µM,> 10 µM,
"Cc1nc(C(C)(CS(C)(=O)=O)NC(=O)c2cc(OCC(F)(F)F)c(Cl)cn2)no1 (stereo not drawn) [Example 80, 5-Chloro-4-(2,2,2-trifluoro-ethoxy)-pyridine-2-carboxylic acid [2-methanesulfonyl-1-methyl-1-(5-methyl-[1,2,4]oxadiazol-3-yl)-ethyl]-amide]",0.969 µM,> 10 µM,,,
"Cc1nc(C(C)(CS(C)(=O)=O)NC(=O)c2cc(OCC(F)F)c(C3CC3)cn2)no1 (single isomer, unassigned) [Example 284, 5-cyclopropyl-4-(2,2-difluoroethoxy)-N-(2-(5-methyl-1,2,4-oxadiazol-3-yl)-1-(methylsulfonyl)propan-2-yl)picolinamide]",,,0.0453 µM,,> 10 µM
"CC1(C(NC(=O)c2cc(OCC(F)(F)F)c(C3CC3)cn2)C(N)=O)COC1 (single isomer, unassigned) [Example 269, N-[2-amino-1-(3-methyloxetan-3-yl)-2-oxoethyl]-5-cyclopropyl-4-(2,2,2-trifluoroethoxy)pyridine-2-carboxamide]",,,0.771 µM,,> 10 µM
"CCC[C@@](C)(CO)NC(=O)c1cc(OCC2CC2)c(Cl)cn1 [Example 37, (−)-5-Chloro-4-cyclopropylmethoxy-pyridine-2-carboxylic acid (1-hydroxymethyl-1-methyl-butyl)-amide]",0.0167 µM,> 10 µM,,,
"CC(CF)Oc1cc(C(=O)NC(C)(CC(N)=O)C2CC2)ncc1C1CC1 (single isomer, unassigned) [Example 304, N-(4-amino-2-cyclopropyl-4-oxobutan-2-yl)-5-cyclopropyl-4-(1-fluoropropan-2-yloxy)picolinamide]",0.0021 µM,0.82 µM,,,
"C[C@H](Oc1cc(C(=O)NC(C)(CC(N)=O)C2CC2)ncc1C1(F)COC1)C(F)(F)F (single isomer, unassigned) [Example 277]",,,0.0431 µM,> 10 µM,
"Cc1nc(C(C)(CC2CC2)NC(=O)c2cc(OCCF)c(C3CC3)cn2)no1 (single isomer, unassigned) [Example 156, 5-cyclopropyl-N-[1-cyclopropyl-2-(5-methyl-1,2,4-oxadiazol-3-yl)propan-2-yl]-4-(2-fluoroethoxy)pyridine-2-carboxamide]",,,0.0047 µM,> 10 µM,
"Cc1nc(C(C)(CS(C)(=O)=O)NC(=O)c2cc(OC(C)CF)c(C3CC3)cn2)no1 (single isomer, unassigned) [Example 297, 5-cyclopropyl-4-(1-fluoropropan-2-yloxy)-N-(2-(5-methyl-1,2,4-oxadiazol-3-yl)-1-(methylsulfonyl)propan-2-yl)picolinamide]",0.0032 µM,,,,> 10 µM
"Cc1nc(C(C)(CS(C)(=O)=O)NC(=O)c2cc(OCC(F)(F)F)c(C3CC3)cn2)no1 (stereo not drawn) [Example 84, 5-Cyclopropyl-4-(2,2,2-trifluoro-ethoxy)-pyridine-2-carboxylic acid [2-methanesulfonyl-1-methyl-1-(5-methyl-[1,2,4]oxadiazol-3-yl)-ethyl]-amide]",0.0488 µM,> 10 µM,,,
"Cc1nc(C(C)(CC2CC2)NC(=O)c2cc(OCC(F)(F)F)c(C3CCC3)cn2)no1 (stereo not drawn) [Example 108, 5-Cyclobutyl-4-(2,2,2-trifluoro-ethoxy)-pyridine-2-carboxylic acid [2-cyclopropyl-1-methyl-1-(5-methyl-[1,2,4]oxadiazol-3-yl)-ethyl]-amide]",0.0027 µM,0.79 µM,,,
"Cc1nc(C(C)(CC2CC2)NC(=O)c2cc(O[C@@H](C)C(F)(F)F)c(C3(F)COC3)cn2)no1 (stereo partly drawn) [Example 142, N-[1-cyclopropyl-2-(5-methyl-1,2,4-oxadiazol-3-yl)propan-2-yl]-5-(3-fluorooxetan-3-yl)-4-[(2S)-1,1,1-trifluoropropan-2-yl]oxypyridine-2-carboxamide]",0.0041 µM,> 10 µM,,,
"C[C@H](Oc1cc(C(=O)NC(c2nnn(C)n2)C(C)(C)C)ncc1C1CC1)C(F)(F)F (stereo partly drawn) [Example 216, 5-cyclopropyl-N-[2,2-dimethyl-1-(2-methyltetrazol-5-yl)propyl]-4-[(2S)-1,1,1-trifluoropropan-2-yl]oxypyridine-2-carboxamide]",0.0047 µM,> 10 µM,,,
"Cc1nc(C(C)(NC(=O)c2cc(OCC(F)(F)F)c(C3CC3)cn2)C(=O)N2CCC2)no1 (stereo not drawn) [Example 182, N-[1-(azetidin-1-yl)-2-(5-methyl-1,2,4-oxadiazol-3-yl)-1-oxopropan-2-yl]-5-cyclopropyl-4-(2,2,2-trifluoroethoxy)pyridine-2-carboxamide]",0.0054 µM,> 10 µM,,,
"CC1(COc2cc(C(=O)NC(C)(C)c3nnc(-c4ccccc4)o3)ncc2C2CC2)COC1 [Example 215, 5-cyclopropyl-4-[(3-methyloxetan-3-yl)methoxy]-N-[2-(5-phenyl-1,3,4-oxadiazol-2-yl)propan-2-yl]pyridine-2-carboxamide]",,,0.0309 µM,> 10 µM,
"Cc1nc(C(C)(CS(C)(=O)=O)NC(=O)c2cc(O[C@@H](C)C(F)(F)F)c(N3CC(F)(F)C3)cn2)no1 (stereo partly drawn) [Example 102, 5-(3,3-Difluoro-azetidin-1-yl)-4-((S)-2,2,2-trifluoro-1-methyl-ethoxy)-pyridine-2-carboxylic acid [2-methanesulfonyl-1-methyl-1-(5-methyl-[1,2,4]oxadiazol-3-yl)-ethyl]-amide]",0.116 µM,> 10 µM,,,
"Cc1nc([C@@](C)(CC2CC2)NC(=O)c2cc(OCC(F)(F)F)c(N3CC(F)(F)C3)cn2)no1 (single isomer, unassigned) [Example 91, 5-(3,3-Difluoro-azetidin-1-yl)-4-(2,2,2-trifluoro-ethoxy)-pyridine-2-carboxylic acid [2-cyclopropyl-1-methyl-1-(5-methyl-[1,2,4]oxadiazol-3-yl)-ethyl]-amide]",,,0.0303 µM,> 10 µM,
"Cn1nnc(C(NC(=O)c2cc(OCC(F)(F)F)c(C3CC3)cn2)C(C)(C)C)n1 (single isomer, unassigned) [Example 209, 5-cyclopropyl-N-[2,2-dimethyl-1-(2-methyltetrazol-5-yl)propyl]-4-(2,2,2-trifluoroethoxy)pyridine-2-carboxamide]",,,0.0048 µM,> 10 µM,
"Cc1nc([C@@](C)(NC(=O)c2cc(O[C@@H](C)C(F)(F)F)c(C3(F)COC3)cn2)C2CC2)no1 [Example 168, N-[1-cyclopropyl-1-(5-methyl-1,2,4-oxadiazol-3-yl)ethyl]-5-(3-fluorooxetan-3-yl)-4-[(2S)-1,1,1-trifluoropropan-2-yl]oxypyridine-2-carboxamide]",0.281 µM,> 10 µM,,,
"CC(C)[C@@](C)(CO)NC(=O)c1cc(OCC2CC2)c(Cl)cn1 [Example 10, 5-Chloro-4-cyclopropylmethoxy-pyridine-2-carboxylic acid ((S)-1-hydroxymethyl-1,2-dimethyl-propyl)-amide]",0.0119 µM,> 10 µM,,,
"CC[C@](C)(CO)NC(=O)c1cc(OCC2CC2)c(Cl)cn1 [Example 30, (−)-5-Chloro-4-cyclopropylmethoxy-pyridine-2-carboxylic acid (1-hydroxymethyl-1-methyl-propyl)-amide]",0.0192 µM,> 10 µM,,,
"CC(C)(C)C(NC(=O)c1cc(OCC(F)(F)F)c(C2CC2)cn1)C(=O)N1CC(F)(F)C1 (stereo not drawn) [Example 197, 5-cyclopropyl-N-[1-(3,3-difluoroazetidin-1-yl)-3,3-dimethyl-1-oxobutan-2-yl]-4-(2,2,2-trifluoroethoxy)pyridine-2-carboxamide]",0.0076 µM,> 10 µM,,,
"O=C(c1cc(OCC(F)(F)F)c(C2CC2)cn1)N1CC(F)(F)C1 [Example 76, [5-Cyclopropyl-4-(2,2,2-trifluoro-ethoxy)-pyridin-2-yl]-(3,3-difluoro-azetidin-1-yl)-methanone]",0.167 µM,> 10 µM,,,
